Experiments:
[1] = test system: purple deadnettle (LAMPU); experiment: Postemergence greenhouse trial, % visual injury on purple deadnettle; assay type: in vivo, Lamium purpureum; settings: LAMPU
Experimental: (§1) Seeds of the desired test plant species were planted in Sun Gro MetroMix® 306 planting mixture, which typically has a pH of 6.0 to 6.8 and an organic matter content of about 30 percent, in plastic pots with a surface area of 103.2 square centimeters (cm^2). When required to ensure good germination and healthy plants, a fungicide treatment and/or other chemical or physical treatment was applied. The plants were grown for 7-36 days (d) in a greenhouse with an approximate 14-hour (h) photoperiod which was maintained at about 23° C. during the day and 22° C. during the night. Nutrients and water were added on a regular basis and supplemental lighting was provided with overhead metal halide 1000-Watt lamps as necessary. The plants were employed for testing when they reached the second or third true leaf stage.
(§2) Weighed amounts of technical material were dissolved in a volume of 97:3 volume per volume (v/v) acetone/dimethyl sulfoxide (DMSO) to stock solutions. […] The concentrated stock solutions were diluted with an aqueous mixture of 1.5% v/v of Agri-dex crop oil concentrate to provide the appropriate application rates. Compound requirements are based upon a 12 milliliter (mL) application volume at a rate of 187 liters per hectare (L/ha). Stocks solutions of the safeners were prepared following the same procedure. Spray solutions of the safeners and experimental compound mixtures were prepared by adding the stock solutions to the appropriate amount of dilution solution to form a 12 mL spray solution in two-way combinations. Formulated compounds were applied to the plant material with an overhead Mandel track sprayer equipped with 8002E nozzles calibrated to deliver 187 L/ha over an application area of 0.503 square meters (m^2) at a spray height of 18 inches (43 centimeters (cm)) above average plant canopy. Control plants were sprayed in the same manner with the solvent blank. All herbicide application (component a) rates are in g ae/ha and all safener (component b) rates are in g ai/ha.
(§3) The treated plants and control plants were placed in a greenhouse as described above and watered by sub-irrigation to prevent wash-off of the test compounds. After 20-22 d, the condition of the test plants as compared with that of the control plants was determined visually and scored on a scale of 0 to 100 percent where 0 corresponds to no injury and 100 corresponds to complete kill. Colby's equation was used to determine the herbicidal effects expected from the mixtures. […]

cleavers (GALAP) = experiment: Postemergence greenhouse trial, % visual injury on cleavers; assay type: in vivo, Galium aparine
Experimental: as §1, §2
(§4) The treated plants and control plants were placed in a greenhouse as described above and watered by sub-irrigation to prevent wash-off of the test compounds. After 20-22 d, the condition of the test plants as compared with that of the control plants was determined visually and scored on a scale of 0 to 100 percent where 0 corresponds to no injury and 100 corresponds to complete kill. The condition of the test plants was compared with that of the control plants as determined visually and scored on a scale of 0 to 100 percent, where 0 corresponds to no injury and 100 corresponds to complete kill. Colby's equation was used to determine the herbicidal effects expected from the mixtures.
(§5) The safener cloquintocet-mexyl was combined with compound 1, compound 2, compound 3, compound 7, compound 8, compound 9, compound 10, compound 11, compound 12, compound 13, compound 14, compound 15, compound 16, compound 17, compound 18, compound 19, and compound 20, and applied to spring wheat (TRZAS), winter wheat (TRZAW), and spring barley (HORVS) and the phytotoxicity of the herbicidal compositions was measured. […]

prickly lettuce (LACSE) = experiment: Postemergence greenhouse trial, % visual injury on prickly lettuce; assay type: in vivo, Lactuca serriola; settings: LACSE; for % visual injury, Ob: CQC-m 0 g/ha
Experimental: as §1, §2, §3

wild buckwheat (POLCO) = experiment: Postemergence greenhouse trial, % visual injury on wild buckwheat; assay type: in vivo, Polygonum convolvulus; settings: for % visual injury, observed (Ob): POLCO
Experimental: as §1, §2, §4
The safener cloquintocet-mexyl was combined with compound 1, compound 2, compound 4, compound 5, and compound 6, and applied to corn/maize (ZEAMX) and spring wheat (TRZAS) and the phytotoxicity of the herbicidal compositions was measured. In addition, the efficacy of the herbicidal composition on velvetleaf (ABUTH, Abutilon theophrasti), pigweed (AMARE, Amaranthus retroflexus), winter rape (BRSNW, Brassica napus), lambsquarters (CHEAL, Chenopodium album), thistle (CIRAR, Cirsium arvense), nutsedge (CYPES, Cyperus esculentus), poinsettia (EPHHL, Euphorbia heterophylla), wild buckwheat (POLCO, Polygonum convolvulus), giant foxtail (SETFA, Setaria faberi), and chickweed (STEME, Stellaria media) was evaluated.
as §5

shepherd's purse (CAPBP) = experiment: Postemergence greenhouse trial, % visual injury on shepherd's purse; assay type: in vivo, Capsella bursa-pastoris; settings: for % visual injury, Ob: CQC-m 0 g/ha
cornflower (CENCY) = experiment: Postemergence greenhouse trial, % visual injury on cornflower; assay type: in vivo, Centaurea cyanus or Cyanus segetum; settings: CENCY; for % visual injury, Ob: CQC-m 0 g/ha
[2] = compound 2 4.380 + CQC-m 0 g/ha
[3] = compound 4.375 g/ha, CQC-m 0 g/ha
[4] = compound 8.75 g/ha, CQC-m 0 g/ha
[5] = compound 17.5 g/ha, CQC-m 0 g/ha

With `CCCCOC(=O)c1nc(-c2ccc3cc[nH]c3c2F)c(F)c(N)c1Cl` [compound 9] the “% visual injury, Ob” value ([1]; compound 4.380 g/ha, CQC-m 0) was 83%, the “% visual injury, Ob” value ([1]; compound 8.75 g/ha, CQC-m 0) was 90% and the “% visual injury, Ob” value ([1]; compound 17.5 g/ha, CQC-m 0) was 100%. The “% visual injury, Ob” value ([1]; compound 35 g/ha, CQC-m 0) was 100% and the “% visual injury, Ob” value ([1]; compound 70 g/ha, CQC-m 0) was 100%.

With `Nc1c(F)c(-c2ccc3cc[nH]c3c2F)nc(C(=O)OCc2ccccc2)c1Cl` [compound 2] the “% visual injury, observed (Ob)” value (cleavers (GALAP); [2]) was 20%, the “% visual injury, observed (Ob)” value (cleavers (GALAP); compound 2 8.75 + CQC-m 0 g/ha) was 30% and the “% visual injury, observed (Ob)” value (cleavers (GALAP); compound 2 17.5 + CQC-m 0 g/ha) was 93%. For the same molecule, the “% visual injury, observed (Ob)” value (cleavers (GALAP); compound 2 35 + CQC-m 0 g/ha) was 85%, the “% visual injury, observed (Ob)” value (cleavers (GALAP); compound 2 70 + CQC-m 0 g/ha) was 97% and the “% visual injury, observed (Ob)” value (prickly lettuce (LACSE); [2]) was 40%. For the same molecule, the “% visual injury, observed (Ob)” value (prickly lettuce (LACSE); compound 2 8.75 + CQC-m 0 g/ha) was 99%, the “% visual injury, observed (Ob)” value (prickly lettuce (LACSE); compound 2 17.5 + CQC-m 0 g/ha) was 99% and the “% visual injury, observed (Ob)” value (prickly lettuce (LACSE); compound 2 35 + CQC-m 0 g/ha) was 100%. For the same molecule, the “% visual injury, observed (Ob)” value (prickly lettuce (LACSE); compound 2 70 + CQC-m 0 g/ha) was 100%, the “% visual injury, observed (Ob)” value [1, 2] was 85% and the “% visual injury, observed (Ob)” value ([1]; compound 2 8.75 + CQC-m 0 g/ha) was 93%. For the same molecule, the “% visual injury, observed (Ob)” value ([1]; compound 2 17.5 + CQC-m 0 g/ha) was 95%, the “% visual injury, observed (Ob)” value ([1]; compound 2 35 + CQC-m 0 g/ha) was 100% and the “% visual injury, observed (Ob)” value ([1]; compound 2 70 + CQC-m 0 g/ha) was 100%. The “% visual injury, Ob” value (wild buckwheat (POLCO); alone, 35 g/ha) was 100%, the “% visual injury, observed (Ob)” value (shepherd's purse (CAPBP); [2]) was 20% and the “% visual injury, observed (Ob)” value (shepherd's purse (CAPBP); compound 2 8.75 + CQC-m 0 g/ha) was 30%. For the same molecule, the “% visual injury, observed (Ob)” value (shepherd's purse (CAPBP); compound 2 17.5 + CQC-m 0 g/ha) was 100%, the “% visual injury, observed (Ob)” value (shepherd's purse (CAPBP); compound 2 35 + CQC-m 0 g/ha) was 100% and the “% visual injury, observed (Ob)” value (shepherd's purse (CAPBP); compound 2 70 + CQC-m 0 g/ha) was 100%. For the same molecule, the “% visual injury, observed (Ob)” value (cornflower (CENCY); [2]) was 100%, the “% visual injury, observed (Ob)” value (cornflower (CENCY); compound 2 8.75 + CQC-m 0 g/ha) was 100% and the “% visual injury, observed (Ob)” value (cornflower (CENCY); compound 2 17.5 + CQC-m 0 g/ha) was 100%. For the same molecule, the “% visual injury, observed (Ob)” value (cornflower (CENCY); compound 2 35 + CQC-m 0 g/ha) was 100% and the “% visual injury, observed (Ob)” value (cornflower (CENCY); compound 2 70 + CQC-m 0 g/ha) was 100%.

With `Nc1cc(-c2ccc3cc[nH]c3c2F)nc(C(=O)O)c1Cl` [compound 15] the “% visual injury, Ob” value (cleavers (GALAP); [3]) was 85%, the “% visual injury, Ob” value (cleavers (GALAP); [4]) was 85% and the “% visual injury, Ob” value (cleavers (GALAP); [5]) was 93%. The “% visual injury, Ob” value (cleavers (GALAP); compound 35 g/ha, CQC-m 0 g/ha) was 93%, the “% visual injury, Ob” value (cleavers (GALAP); compound 70 g/ha, CQC-m 0 g/ha) was 90% and the “% visual injury, Ob” value [1, 3] was 93%. For the same molecule, the “% visual injury, Ob” value [1, 4] was 95%, the “% visual injury, Ob” value [1, 5] was 93% and the “% visual injury, Ob” value ([1]; compound 35 g/ha, CQC-m 0 g/ha) was 93%. For the same molecule, the “% visual injury, Ob” value ([1]; compound 70 g/ha, CQC-m 0 g/ha) was 95%.

In the case of `Nc1c(F)c(-c2ccc3scnc3c2)nc(C(=O)O)c1Cl` [compound 17], the “% visual injury, Ob” value (cleavers (GALAP); 4.375 g/ha, applied alone) is reported as 50%, the “% visual injury, Ob” value (cleavers (GALAP); 8.75 g/ha, applied alone) is reported as 60% and the “% visual injury, Ob” value (cleavers (GALAP); 17.5 g/ha, applied alone) is reported as 70%. For the same molecule, the “% visual injury, Ob” value (cleavers (GALAP); 35 g/ha, applied alone) was 90% and the “% visual injury, Ob” value (cleavers (GALAP); 70 g/ha, applied alone) was 90%.

For `COc1c(C(=O)O)nc(-c2ccc3cc[nH]c3c2F)c(F)c1N` [compound 13], the “% visual injury, Ob” value (cleavers (GALAP); [3]) was 40%, the “% visual injury, Ob” value (cleavers (GALAP); [4]) was 70% and the “% visual injury, Ob” value (cleavers (GALAP); [5]) was 80%. The “% visual injury, Ob” value (cleavers (GALAP); compound 35 g/ha, CQC-m 0 g/ha) was 100%, the “% visual injury, Ob” value (cleavers (GALAP); compound 70 g/ha, CQC-m 0 g/ha) was 100% and the “% visual injury, Ob” value (prickly lettuce (LACSE); compound 4.375 g/ha) was 85%. For the same molecule, the “% visual injury, Ob” value (prickly lettuce (LACSE); compound 8.75 g/ha) was 93%, the “% visual injury, Ob” value (prickly lettuce (LACSE); compound 17.5 g/ha) was 95% and the “% visual injury, Ob” value (prickly lettuce (LACSE); compound 35 g/ha) was 95%. The “% visual injury, Ob” value (prickly lettuce (LACSE); compound 70 g/ha) was 100%, the “% visual injury, Ob” value (shepherd's purse (CAPBP); compound 4.375 g/ha) was 85% and the “% visual injury, Ob” value (shepherd's purse (CAPBP); compound 8.75 g/ha) was 100%. For the same molecule, the “% visual injury, Ob” value (shepherd's purse (CAPBP); compound 17.5 g/ha) was 100%, the “% visual injury, Ob” value (shepherd's purse (CAPBP); compound 35 g/ha) was 100% and the “% visual injury, Ob” value (shepherd's purse (CAPBP); compound 70 g/ha) was 100%. For the same molecule, the “% visual injury, Ob” value (cornflower (CENCY); compound 4.375 g/ha) was 100%, the “% visual injury, Ob” value (cornflower (CENCY); compound 8.75 g/ha) was 100% and the “% visual injury, Ob” value (cornflower (CENCY); compound 17.5 g/ha) was 100%. For the same molecule, the “% visual injury, Ob” value (cornflower (CENCY); compound 35 g/ha) was 100% and the “% visual injury, Ob” value (cornflower (CENCY); compound 70 g/ha) was 100%.

In the case of `COC(=O)c1nc(-c2ccc3cc[nH]c3c2F)c(F)c(N)c1Cl` [compound 8], the “% visual injury, observed (Ob)” value (wild buckwheat (POLCO); compound 8 4.380 + CQC-m 0 g/ha) is reported as 85%, the “% visual injury, observed (Ob)” value (wild buckwheat (POLCO); compound 8 8.75 + CQC-m 0 g/ha) is reported as 97% and the “% visual injury, observed (Ob)” value (wild buckwheat (POLCO); compound 8 17.5 + CQC-m 0 g/ha) is reported as 93%. For the same molecule, the “% visual injury, observed (Ob)” value (wild buckwheat (POLCO); compound 8 35 + CQC-m 0 g/ha) was 100% and the “% visual injury, observed (Ob)” value (wild buckwheat (POLCO); compound 8 70 + CQC-m 0 g/ha) was 100%.

From US9763445B2, “Safened herbicidal compositions comprising a pyridine carboxylic acid herbicide” (Dow AgroSciences, LLC, priority 2014, dated 2017)
